Values belong to the compound of their own block, whether it stands above or below them.
Columns and labels:
[1] = cited from earlier work
[2] = test system: PDE1 partially purified from bovine heart; test: PDE1 biochemical enzyme assay ([3H]cAMP hydrolysis); settings: 100 μM; for % Inhibition of PDE1: Example 3
Method: In this example, a racemic mixture of flosequinan and the (+) and (−) enantiomers of flosequinan were subjected to biochemical enzyme assays to determine their respective percent inhibition of a variety of phosphodiesterases (PDE1-PDE6). The reaction conditions for each PDE assay were as follows. PDE1: PDE1 partially purified from bovine heart was used. A racemic mixture of flosequinan, and each enantiomer of flosequinan, all at a molar concentration of 100 μM, were independently incubated with 13 μg PDE1 enzyme, 1.0 μM [^3H]cAMP and CaCl2/calmodulin in Tris buffer pH 7.5 for 20 minutes at 30° C. The reaction was terminated by boiling for 2 minutes, and the resulting AMP was converted to adenosine by addition of 10 mg/ml snake venom nucleotidase and further incubation at 30° C. for 10 minutes. Unhydrolyzed cAMP was bound to AGI-X2 resin, and the remaining [^3H]adenosine in the aqueous phase was quantitated by scintillation counting.

[3] = target: T1, PDE6 partially purified from bovine retinal rod and activated by trypsin (Bos taurus, UniProt P11541+P23439); test: PDE6 biochemical enzyme assay ([3H]cGMP hydrolysis); settings: Example 1; versus Viagra 0.3 μM
T1 construct: from tissue; host or cells: bovine retinal rod
T1 sequence (P11541 2-856 limits assumed): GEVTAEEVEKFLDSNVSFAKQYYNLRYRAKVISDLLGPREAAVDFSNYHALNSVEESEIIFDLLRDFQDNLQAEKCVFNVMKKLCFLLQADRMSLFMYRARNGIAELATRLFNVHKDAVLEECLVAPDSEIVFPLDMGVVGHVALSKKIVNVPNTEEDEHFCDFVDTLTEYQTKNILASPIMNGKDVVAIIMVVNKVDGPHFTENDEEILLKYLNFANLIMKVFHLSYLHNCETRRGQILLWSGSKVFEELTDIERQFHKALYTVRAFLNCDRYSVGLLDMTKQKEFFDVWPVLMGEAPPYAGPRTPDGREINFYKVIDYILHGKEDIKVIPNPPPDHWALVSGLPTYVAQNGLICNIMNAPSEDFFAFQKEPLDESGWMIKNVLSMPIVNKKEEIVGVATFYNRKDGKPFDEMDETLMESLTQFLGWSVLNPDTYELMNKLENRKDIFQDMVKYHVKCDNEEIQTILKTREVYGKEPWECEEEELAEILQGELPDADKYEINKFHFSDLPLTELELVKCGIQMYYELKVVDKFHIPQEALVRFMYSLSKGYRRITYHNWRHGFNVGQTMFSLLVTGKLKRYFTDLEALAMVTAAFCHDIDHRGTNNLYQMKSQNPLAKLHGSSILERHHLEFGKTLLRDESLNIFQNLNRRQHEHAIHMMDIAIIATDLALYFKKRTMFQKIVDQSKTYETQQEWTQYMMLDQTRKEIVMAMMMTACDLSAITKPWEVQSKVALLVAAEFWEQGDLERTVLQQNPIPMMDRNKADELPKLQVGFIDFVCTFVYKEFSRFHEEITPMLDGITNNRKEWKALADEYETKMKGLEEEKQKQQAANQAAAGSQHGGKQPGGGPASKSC
T1 sequence (P23439 2-850 limits assumed): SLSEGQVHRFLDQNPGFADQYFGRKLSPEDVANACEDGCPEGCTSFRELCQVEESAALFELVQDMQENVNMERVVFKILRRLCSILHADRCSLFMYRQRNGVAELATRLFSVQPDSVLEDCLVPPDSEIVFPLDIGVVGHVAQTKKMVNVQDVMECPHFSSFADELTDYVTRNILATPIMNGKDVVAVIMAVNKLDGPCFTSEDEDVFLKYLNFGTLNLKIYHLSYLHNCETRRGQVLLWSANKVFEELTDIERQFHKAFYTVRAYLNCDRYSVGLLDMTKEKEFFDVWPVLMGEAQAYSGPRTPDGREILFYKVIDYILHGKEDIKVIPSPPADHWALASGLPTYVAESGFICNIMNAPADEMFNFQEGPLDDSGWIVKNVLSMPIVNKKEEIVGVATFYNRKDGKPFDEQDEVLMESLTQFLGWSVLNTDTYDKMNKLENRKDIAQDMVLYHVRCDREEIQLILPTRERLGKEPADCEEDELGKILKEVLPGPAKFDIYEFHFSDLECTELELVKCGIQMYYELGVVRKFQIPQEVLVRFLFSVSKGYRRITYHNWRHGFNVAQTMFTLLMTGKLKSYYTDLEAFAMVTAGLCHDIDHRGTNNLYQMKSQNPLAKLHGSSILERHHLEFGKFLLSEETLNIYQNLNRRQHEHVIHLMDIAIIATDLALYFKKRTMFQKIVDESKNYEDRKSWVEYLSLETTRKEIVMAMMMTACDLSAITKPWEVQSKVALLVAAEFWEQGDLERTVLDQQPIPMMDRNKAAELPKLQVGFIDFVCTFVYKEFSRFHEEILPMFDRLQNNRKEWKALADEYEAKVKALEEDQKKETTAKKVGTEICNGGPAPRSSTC

[4] = Solubility of flosequinan; assay type: physicochemical; settings: water; organic solvents
Excerpt: Thus, while the present invention is not limited by the form of oral administration, aqueous and organic solution of flosequinan for oral administration is contemplated. Likewise, flosequinan can be associated with a solid pharmaceutical carrier for solid oral administration (i.e., in pill form).

[5] = target: T2, PDE3 partially purified from human platelets (Homo sapiens, UniProt Q14432); test: PDE3 biochemical enzyme assay ([3H]cAMP hydrolysis); settings: 100 μM
T2 construct: PDE3 partially purified from human platelets was used; from tissue; host or cells: human platelets
T2 sequence (Q14432 whole entry): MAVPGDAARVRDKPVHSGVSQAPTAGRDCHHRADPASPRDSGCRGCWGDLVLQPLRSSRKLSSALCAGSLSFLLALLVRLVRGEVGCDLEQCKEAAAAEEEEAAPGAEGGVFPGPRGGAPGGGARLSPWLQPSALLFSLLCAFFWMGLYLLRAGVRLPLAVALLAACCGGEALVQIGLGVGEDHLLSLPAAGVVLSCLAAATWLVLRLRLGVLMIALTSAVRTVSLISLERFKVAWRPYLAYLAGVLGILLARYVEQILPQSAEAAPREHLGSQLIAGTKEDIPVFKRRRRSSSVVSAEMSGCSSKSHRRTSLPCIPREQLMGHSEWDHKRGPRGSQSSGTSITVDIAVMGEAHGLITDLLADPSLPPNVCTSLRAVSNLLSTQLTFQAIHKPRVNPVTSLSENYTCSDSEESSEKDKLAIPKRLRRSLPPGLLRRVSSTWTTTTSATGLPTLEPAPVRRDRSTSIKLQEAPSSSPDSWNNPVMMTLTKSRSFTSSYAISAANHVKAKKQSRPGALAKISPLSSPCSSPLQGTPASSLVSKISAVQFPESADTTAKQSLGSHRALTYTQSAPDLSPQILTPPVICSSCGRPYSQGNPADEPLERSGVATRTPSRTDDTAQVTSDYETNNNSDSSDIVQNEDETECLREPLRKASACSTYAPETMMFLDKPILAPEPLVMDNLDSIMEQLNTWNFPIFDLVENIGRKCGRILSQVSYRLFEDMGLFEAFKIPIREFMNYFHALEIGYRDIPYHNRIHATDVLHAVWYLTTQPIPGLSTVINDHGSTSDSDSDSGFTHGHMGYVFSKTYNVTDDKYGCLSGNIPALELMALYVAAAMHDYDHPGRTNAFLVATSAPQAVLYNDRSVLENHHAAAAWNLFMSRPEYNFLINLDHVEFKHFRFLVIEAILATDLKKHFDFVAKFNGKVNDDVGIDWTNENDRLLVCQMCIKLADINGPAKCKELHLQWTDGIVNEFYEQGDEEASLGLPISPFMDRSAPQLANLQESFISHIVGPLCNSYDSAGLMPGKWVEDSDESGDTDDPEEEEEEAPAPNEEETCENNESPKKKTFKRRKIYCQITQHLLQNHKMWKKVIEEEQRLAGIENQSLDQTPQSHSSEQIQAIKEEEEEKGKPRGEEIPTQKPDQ
Method: PDE3: PDE3 partially purified from human platelets was used. A racemic mixture of flosequinan, and each enantiomer of flosequinan, all at a molar concentration of 100 μM, were independently incubated with 13 μg PDE3 enzyme and 1 μM cAMP containing 0.01 μM [^3H]cAMP in Tris buffer pH 7.5 for 20 minutes at 30° C. The reaction was terminated by boiling for 2 minutes, and the resulting AMP was converted to adenosine by addition of 10 mg/ml snake venom nucleotidase and further incubation at 30° C. for 10 minutes. Unhydrolyzed cAMP was bound to AGI-X2 resin, and the remaining [^3H]adenosine in the aqueous phase was quantitated by scintillation counting.

[6] = following oral administration; cited from earlier work

% Inhibition of PDE1 [2]: 31%
times more compound on a molar basis than Viagra for around 50% inhibition of PDE6 [3]: more than 300 times
SMILES: Cn1cc([S+](C)[O-])c(=O)c2ccc(F)cc21 (racemic) [Flosequinan, 7-fluoro-1-methyl-3-(methylsulphinyl)-4(1H)-quinolone]
time of peak plasma concentrations of flosequinan ([1]; following oral administration): 1 to 2 h
time of peak metabolite plasma levels ([1]; following oral dosage of flosequinan): about seven
mean absolute bioavailability ([1]; oral, single dose of fifty milligrams): 72%
solubility [4]: water soluble and is soluble in many organic solvents

% Inhibition of PDE1 [2]: 11%
SMILES: Cn1cc([S+](C)[O-])c(=O)c2ccc(F)cc21 (single isomer, unassigned; (-)) [(−)-flosequinan]

PDE1 inhibitory activity compared with the (−) enantiomer of flosequinan [2]: more PDE1 and PDE3 inhibitory activity
% Inhibition of PDE1 [2]: 28%
PDE3 inhibitory activity compared with the (−) enantiomer of flosequinan [5]: more PDE1 and PDE3 inhibitory activity
SMILES: Cn1cc([S@@+](C)[O-])c(=O)c2ccc(F)cc21 [(+)-flosequinan]

SMILES: O=C1CCc2cc(OCCCCc3nnnn3C3CCCCC3)ccc2N1 [cilostazol, 6-[4-(1-cyclohexyl-1H-tetrazol-5-yl)butoxy]-3,4-dihydro-2(1H)-quinolinone]
time of peak plasma concentrations of cilostazol [6]: 2 to 4 h

Source: US6451813B1, “Treatment of gastroparesis in certain patient groups” (R. T. Alamo Ventures I, LLC, priority 2001, dated 2002)
